Results published in the NIST ThermoML archive (doi:10.1021/je800727f).
Numbers after ± are expanded uncertainties.

Details: for viscosity / mass density: 101.33 kPa, Liquid; for viscosity: dissipative quartz crystal microbalance from KSV (QCMZ500)

CCCCCCCC[n+]1ccn(C)c1.F[B-](F)(F)F [1-methyl-3-octylimidazolium tetrafluoroborate]
Details | mass density [kg/m3] | surface tension liquid-gas [mN/m] | viscosity [mPa·s]
293.15 K | – | – | 413 ± 71
298.15 K | 1100.5 ± 3.3 | – | 325 ± 57
308.15 K | 1093.7 ± 3.2 | – | 205 ± 35
318.15 K | 1087.1 ± 3.2 | – | 129 ± 12
328.15 K | 1080.5 ± 3.2 | – | 86 ± 7
570.95 K | – | 32.7 ± 1.4 | –
586.35 K | – | 32.4 ± 1.4 | –
606.62 K | – | 31.3 ± 1.3 | –
625.26 K | – | 30.2 ± 1.3 | –
646.29 K | – | 28.1 ± 1.2 | –
665.98 K | – | 27.7 ± 1.2 | –
685.41 K | – | 27.2 ± 1.2 | –
704.75 K | – | 25.3 ± 1.1 | –
724.78 K | – | 24.5 ± 1.1 | –
743.71 K | – | 23.7 ± 1.1 | –

C[n+]1ccn(CCO)c1.F[B-](F)(F)F [1-(2-hydroxyethyl)-3-methylimidazolium tetrafluoroborate]
Details | mass density [kg/m3] | surface tension liquid-gas [mN/m] | viscosity [mPa·s]
293.15 K | – | – | 1554 ± 270
298.15 K | 1308 ± 4.1 | – | 974 ± 170
303.15 K | 1304.7 ± 4 | – | –
308.15 K | 1301.4 ± 4 | – | 477 ± 83
313.15 K | 1296.1 ± 4 | – | –
318.15 K | 1294.7 ± 4 | – | 257 ± 45
323.15 K | 1291.5 ± 4 | – | –
328.15 K | 1288.3 ± 4 | – | 156 ± 14
572 K | – | 64.7 ± 2.4 | –
577.78 K | – | 64.6 ± 2.4 | –
587.55 K | – | 64 ± 2.4 | –
597.81 K | – | 63.5 ± 2.4 | –
607.58 K | – | 62.7 ± 2.3 | –
626.51 K | – | 61.7 ± 2.3 | –
645.35 K | – | 59.9 ± 2.2 | –
665.48 K | – | 59.1 ± 2.2 | –
684.42 K | – | 57.5 ± 2.2 | –
703.95 K | – | 56.4 ± 2.1 | –
725.28 K | – | 55.4 ± 2.1 | –
743.71 K | – | 53.6 ± 2 | –
